System: 922993-354-T-J3-PDC complex spheroid viability
Assay: Anticancer human tumor 922993-354-T-J3-PDC patient-derived endometrial carcinoma cell line growth inhibition [POLQ]
Settings: for IC50: curve of first compound; for viability, T/C: stronger effect = lower value
Description: Multicellular complex tumor spheroid response to Polymerase (POL) inhibitors (novobiocin, ART-558, RP6685) in combination with a variety of drugs and investigational agents in selected tumor cell lines
The POL inhibitors (novobiocin, ART-558, and RP6685) were evaluated both individually and in combination with standard of care and investigational anticancer small molecules within a complex spheroid model of solid tumors. . Complex spheroids include a stromal component modeled by human endothelial cells (HUVEC) and fibroblasts modeled by human mesenchymal stem cells (MSCs). The concentration ranges selected for each drug and investigational agent were based upon clinically achievable concentrations if the clinical Cmax of the agent was known.
Compounds. The drugs and investigational agents: novobiocin (NSC847541), ART-558 (NSC835418), RP-6685 (NSC848927), peposertib (NSC802822), ceralasertib (NSC780249), elimusertib (NSC800525), camonsertib (NSC841442), AZD-1390 (NSC803789), olaparib (NSC753686), talazoparib (NSC767125), rucaparib (NSC756644), sotorasib (NSC818433), MRTX-1133 (NSC836407), SN-38 (NSC673596), topotecan (NSC609699), epotoside (NSC141540), doxorubicin (NSC123127), gemcitabine (NSC613327), 5-fluorouracil (NSC19893), paclitaxel (NSC125973), vemurafenib (NSC761431), MSA-2 (NSC828583), SN-011 (NSC837082), adavosertib (NSC754352), prexasertib (NSC758257), carboplatin (NSC241240) and oxaliplatin (NSC266046), were obtained from the National Cancer Institute (NCI) Developmental Therapeutics Program Chemical Repository (21). The FDA-approved anticancer drug set is available from the Developmental Therapeutics Program at https://dtp.cancer.gov/organization/dscb/obtaining/. […] The stock solutions were prepared in dimethyl sulfoxide (DMSO, Sigma-Aldrich, St. Louis, MO, cat. D2650), except for the platinum compounds which were prepared in saline (Quality Biological, Gaithersburg, MD, cat. 114-055-101), at 800-fold the tested concentration and stored at -70 degrees C prior to their use. All drugs and investigational agents were tested over a range starting from a high concentration at or near the clinical Cmax and decreasing in half-log increments. If the clinical Cmax for an agent had not been determined, the highest concentration tested was 10 microM, except for SN-38, which was tested at a high concentration of 1 microM.
Cell Culture. All cells were maintained in an incubator at 37 degrees C and 5% CO2 with 95% humidity. The PDC lines were cultured according to standard operating procedures established by the NCI PDMR (https://pdmr.cancer.gov). Table 3 of the manuscript, lists the cell lines along with the number of the three cell types plated to form the mct-spheroids and media for tumor cell growth. After thawing, all PDC lines, except 997537-175-T-J1-PDC and 415267-285-R-J2-PDC, were cultured in Matrigel-coated flasks prepared with a working solution of 1X Ham's F-12 nutrient mix, without supplementation (Thermo Fisher Scientific, cat. 11765054), 100 U/mL penicillin-streptomycin (Thermo Fisher Scientific, cat. 15140122), and 2.5% Matrigel (Corning Inc., Corning, NY, cat. 354248) for the first three passages. The two PDC lines 997537-175-T-J1-PDC and 415267-285-R-J2-PDC were cultured on uncoated flasks. The 857933-349-R-J2-PDC line was cultured in 6C/Colon 1B media containing advanced DMEM/F-12 (Thermo Fisher Scientific, cat. 12634028), 10 mM HEPES (Thermo Fisher Scientific, cat. 15630080), 1X GlutaMAX supplement (Thermo Fisher Scientific, cat. 35050061), 0.1 mg/mL primocin (InvivoGen, San Diego, CA, cat. ant-pm-2), 10% defined fetal bovine serum, heat inactivated (HyClone Laboratories Inc., Logan, UT, cat. SH30070.03HI), 50% L-WRN conditioned media (ATCC, cat. CRL-3276), 1.25 mM N-Acetyl-L-cysteine (Sigma-Aldrich, cat. A9165), 10 mM nicotinamide (Sigma-Aldrich, cat. N0636), 1X B-27 supplement (Thermo Fisher Scientific, cat. 17504044), 1X N-2 supplement (Thermo Fisher Scientific, cat. […]

[1] = second compound 0.0316 µM, first compound 0.0316 µM
[2] = second compound 0.0316 µM, first compound 0.1 µM
[3] = second compound 0.0316 µM, first compound 0.316 µM
[4] = second compound 0.0316 µM, first compound 1 µM
[5] = second compound 0.0316 µM, first compound 3.16 µM
[6] = second compound 0.0316 µM, first compound 10 µM
[7] = second compound 0.1 µM, first compound 0.0316 µM
[8] = second compound 0.1 µM, first compound 0.1 µM
[9] = second compound 0.1 µM, first compound 0.316 µM
[10] = second compound 0.1 µM, first compound 1 µM
[11] = second compound 0.1 µM, first compound 3.16 µM
[12] = second compound 0.1 µM, first compound 10 µM
[13] = second compound 0.316 µM, first compound 0.0316 µM
[14] = second compound 0.316 µM, first compound 0.1 µM
[15] = second compound 0.316 µM, first compound 0.316 µM
[16] = second compound 0.316 µM, first compound 1 µM
[17] = second compound 0.316 µM, first compound 3.16 µM
[18] = second compound 0.316 µM, first compound 10 µM
[19] = second compound 1 µM, first compound 0.0316 µM
[20] = second compound 1 µM, first compound 0.1 µM
[21] = second compound 1 µM, first compound 0.316 µM
[22] = second compound 1 µM, first compound 1 µM
[23] = second compound 1 µM, first compound 3.16 µM
[24] = second compound 1 µM, first compound 10 µM
[25] = second compound 3.16 µM, first compound 0.0316 µM
[26] = second compound 3.16 µM, first compound 0.1 µM
[27] = second compound 3.16 µM, first compound 0.316 µM
[28] = second compound 3.16 µM, first compound 1 µM
[29] = second compound 3.16 µM, first compound 3.16 µM
[30] = second compound 3.16 µM, first compound 10 µM
[31] = second compound 10 µM, first compound 0.0316 µM
[32] = second compound 10 µM, first compound 0.1 µM
[33] = second compound 10 µM, first compound 0.316 µM
[34] = second compound 10 µM, first compound 1 µM
[35] = second compound 10 µM, first compound 3.16 µM
[36] = second compound 10 µM, first compound 10 µM
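Note: spheroids exposed to the agents for one week.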
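Throughout, for viability, T/C: 100% = DMSO vehicle control wells.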

Structure (SMILES): CCc1cc2c(N3CCc4c(cc(Cn5ccnc5)cc4-c4cn(C)nc4C(F)(F)F)C3=O)ccnc2c(OC)n1 + COC1C(OC(N)=O)C(O)C(Oc2ccc3c(O)c(NC(=O)c4ccc(O)c(CC=C(C)C)c4)c(=O)oc3c2C)OC1(C)C
- IC50 (second compound 0.0316 µM): > 10 µM
- IC50 (second compound 0.1 µM): > 10 µM
- IC50 (second compound 0.316 µM): > 10 µM
- IC50 (second compound 1 µM): > 10 µM
- IC50 (second compound 3.16 µM): > 10 µM
- IC50 (second compound 10 µM): > 10 µM
- viability, T/C [1]: 104%
- viability, T/C [2]: 110%
- viability, T/C [3]: 101%
- viability, T/C [4]: 102%
- viability, T/C [5]: 96.2%
- viability, T/C [6]: 71.5%
- viability, T/C [7]: 108%
- viability, T/C [8]: 102%
- viability, T/C [9]: 97.9%
- viability, T/C [10]: 109%
- viability, T/C [11]: 97.1%
- viability, T/C [12]: 79.8%
- viability, T/C [13]: 104%
- viability, T/C [14]: 101%
- viability, T/C [15]: 102%
- viability, T/C [16]: 97.3%
- viability, T/C [17]: 86.9%
- viability, T/C [18]: 79.6%
- viability, T/C [19]: 97.4%
- viability, T/C [20]: 101%
- viability, T/C [21]: 104%
- viability, T/C [22]: 101%
- viability, T/C [23]: 90%
- viability, T/C [24]: 76.6%
- viability, T/C [25]: 88.1%
- viability, T/C [26]: 96.5%
- viability, T/C [27]: 100%
- viability, T/C [28]: 85.2%
- viability, T/C [29]: 89.2%
- viability, T/C [30]: 70.4%
- viability, T/C [31]: 84%
- viability, T/C [32]: 82.8%
- viability, T/C [33]: 105%
- viability, T/C [34]: 91%
- viability, T/C [35]: 93.9%
- viability, T/C [36]: 68.3%

Structure (SMILES): CNCc1ccc(-c2[nH]c3cc(F)cc4c3c2CCNC4=O)cc1 + COC1C(OC(N)=O)C(O)C(Oc2ccc3c(O)c(NC(=O)c4ccc(O)c(CC=C(C)C)c4)c(=O)oc3c2C)OC1(C)C
- IC50 (second compound 0.0316 µM): > 10 µM
- IC50 (second compound 0.1 µM): > 10 µM
- IC50 (second compound 0.316 µM): > 10 µM
- IC50 (second compound 1 µM): > 10 µM
- IC50 (second compound 3.16 µM): > 10 µM
- IC50 (second compound 10 µM): > 10 µM
- viability, T/C [1]: 104%
- viability, T/C [2]: 100%
- viability, T/C [3]: 98.3%
- viability, T/C [4]: 109%
- viability, T/C [5]: 105%
- viability, T/C [6]: 85.4%
- viability, T/C [7]: 107%
- viability, T/C [8]: 106%
- viability, T/C [9]: 94.3%
- viability, T/C [10]: 90%
- viability, T/C [11]: 91.5%
- viability, T/C [12]: 78.6%
- viability, T/C [13]: 102%
- viability, T/C [14]: 103%
- viability, T/C [15]: 108%
- viability, T/C [16]: 90.3%
- viability, T/C [17]: 85.8%
- viability, T/C [18]: 81.3%
- viability, T/C [19]: 102%
- viability, T/C [20]: 101%
- viability, T/C [21]: 98.2%
- viability, T/C [22]: 107%
- viability, T/C [23]: 89%
- viability, T/C [24]: 77.4%
- viability, T/C [25]: 95.5%
- viability, T/C [26]: 89.9%
- viability, T/C [27]: 86.6%
- viability, T/C [28]: 79%
- viability, T/C [29]: 108%
- viability, T/C [30]: 70.1%
- viability, T/C [31]: 95.4%
- viability, T/C [32]: 80.8%
- viability, T/C [33]: 80.9%
- viability, T/C [34]: 73.1%
- viability, T/C [35]: 86.7%
- viability, T/C [36]: 78.8%
